Paper PMC4441267

Experiment: CuAAC macrocyclisation to 1,4-triazole (CuI 2 eq, DIPEA 3 eq), Boc retained
Conditions: THF (reflux), 1.2 mM, 66.0 °C, 18.0 h

Row | Compound | ring closure, isolated yield (from C#CCNC(=O)NCCC[C@H](NC(=O)OC(C)(C)C)C(=O)N[C@@H](CCC(=O)N[C@@H](CCCCN=[N+]=[N-])C(=O)OC)C(=O)OC, 23-membered ring) [%] | ring closure, isolated yield (from C#CCCCC(=O)Nc1ccc(C[C@H](NC(=O)OC(C)(C)C)C(=O)N[C@@H](CCC(=O)N[C@@H](CCCCN=[N+]=[N-])C(=O)OC)C(=O)OC)cc1, 26-membered ring) [%]
1 | COC(=O)[C@@H]1CCCCn2cc(nn2)CNC(=O)NCCC[C@H](NC(=O)OC(C)(C)C)C(=O)N[C@H](C(=O)OC)CCC(=O)N1 [Boc-Orn(CONH-propargyl)-Glu(gamma-Lys(N3)-OMe)-OMe] | 60 | 
2 | COC(=O)[C@@H]1CCCCn2cc(nn2)CCCC(=O)Nc2ccc(cc2)C[C@H](NC(=O)OC(C)(C)C)C(=O)N[C@H](C(=O)OC)CCC(=O)N1 [Boc-Phe(4-NH-5-hexynoyl)-Glu(gamma-Lys(N3)-OMe)-OMe] |  | 12
